Test results from patent US20090274739A1, “METHODS AND COMPOSITIONS FOR TREATING NEOINTIMAL HYPERPLASIA” (THE TRUSTEES OF COLUMBIA UNIVERSITY IN THE CITY OF NEW YORK, priority 2006, published 2009).
Where “and” joins values, the source holds several entries; their conditions need not be identical. Identical values can stand only once. Entries after “also recorded” stand apart in the source; their conditions may differ.

Key:
[1] = system: MAPK (p44/p42, ERK1/2) phosphorylation; assay: Immunoblot of MAPK (ERK1/2, p44/p42) phosphorylation in VSMC; assay type: cell-based, mouse
Method: (§1) Western blot analysis: The cells were plated in a 100-mm culture dish in DMEM supplemented with 20% FBS for 24 h at 37° C., followed by serum starvation for 48 h. Cells were then treated with different reagents for 30 min. Cells were subsequently lysed on ice for 30 min in RIPA buffer [150 mM NaCl, 100 mM Tris (pH 8.0), 1% Triton X-100, 1% deoxycholic acid, 0.1% SDS, 5 mM EDTA, and 10 mM NaF] supplemented with 1 mM sodium vanadate, 2 mM leupeptin, 2 mM aprotinin, 1 mM phenylmethylsulfonyl fluoride (PMSF), 1 mM DTT, and 2 mM pepstatin A. After centrifugation at 14,000 rpm for 30 min, the supernatant was harvested as the total cellular protein extract, and stored at −70° C. The protein concentration was determined using Bio-Rad protein assay reagent (Richmond, Calif.). The total cellular protein extracts were separated by SDS-polyacrylamide gel electrophoresis (SDS-PAGE) and transferred to nitrocellulose membrane in 20 mM Tris-HCl (pH 8.0) containing 150 mM glycine and 20% (v/v) methanol.
(§2) Membranes were blocked with 5% nonfat dried milk in PBS containing 0.05% Tween 20 and incubated with antibodies against phospho-(Thr^202/Tyr^204) p42/p44^MAPK and p42/p44^MAPK, phospho-Akt([…]) and anti-Akt, p70^S6K, 4EBP-1. Blots were washed three times in PBS buffer, followed by incubation with the appropriate HRP-linked IgG. The specific proteins in the blots were visualized using an enhanced chemiluminescence reagent (NEN, Boston, Mass.).
(§3) VSMC were plated on 100-mm dishes, serum starved for 72 h in DMEM containing 0.1% FBS, and stimulated with 0.6 or 6 nM (10 or 100 ng/ml) leptin. Extracts were prepared by brief sonication in HKM buffer [40 mM HEPES-KOH (pH 7.6), 7.5 mM MgCl2, 0.5 mM DTT] or, in the case of Akt phosphorylation studies, by lysing cells on ice for 30 min in RIPA buffer. 70 μg of protein per sample were subjected to immunoblotting by standards protocols. Imaging and densitometry were performed on an Odyssey infrared system (Li-Cor, Lincoln, Neb.).

Akt phosphorylation = assay: Immunoblot of Akt phosphorylation in VSMC; assay type: cell-based, mouse; conditions: Example 2; rapamycin; leptin 100 ng/ml
Method: as §1, §2, §3

[2] = system: murine femoral artery wire injury model (neointimal hyperplasia); assay: Femoral artery wire injury model, morphometry of neointimal formation; assay type: in vivo, mouse; design: Lumen / Media / Intima / TVA (total vessel area): unit not given here; conditions: for decrease of neointimal formation compared to vehicle: absence of leptin; for I/M (intima:media ratio) / Intima / Lumen / Media / TVA (total vessel area): mean ± SD
Description: Animal Models and Drug Treatments. Wild type C57BL/6J background mice and mice deficient for leptin (C57BL/6J-Lepob; ob/ob) or the leptin receptor (C57BL/6J-m+/+Lepdb; db/db) were purchased from Charles Jackson Laboratories, Maine. Mice were obtained at ages 6-8 weeks old and average weight 15 g. Animals were fed standard rodent chow and tap water ad libitum. Procedures and animal care were approved by the Institutional Animal Care and Use Committee. Mice were subjected to femoral artery wire injury or sham injury described below 24 hr prior to starting pharmacological treatments. Sirolimus was administered by intraperitoneal injection once per day for 14 days as a suspension in 0.2% sodium carboxymethyl cellulose and 0.25% polysorbate-80; duplicate experiments were accomplished with 0.5% DMSO. Leptin or LY294002 was administered by intraperitoneal injection once per day for 14 days as a suspension in PBS. Plasma leptin levels were measured at baseline, 3, 6, and 10 hr after leptin injection using an ELISA assay (R&D). Leptin plus the vehicle used for both sirolimus and LY294002 was used as the control group for the treatment groups with sirolimus and LY294002. After the 2-week treatment, animals were processed for femoral artery morphometry.
Femoral Artery Injury Model. Endoluminal injury of bilateral femoral arteries was performed according to the method of Roque et al. with minor modification 27. […] Briefly, to denude and dilate femoral arteries, a 0.014″ angioplasty guidewire (Guidant) was passed endoluminally 3 times to the level of the aortic bifurcation. A sham protocol was performed where the arteries underwent dissection, clamping, and ligature without passage of the guidewire.
Computer-aided quantitative morphometry to measure luminal, medial, intimal, and vessel areas were performed as previously described 27 with minor modification. Mice were euthanized via CO2 asphyxiation prior to en bloc excision of hind limbs. Briefly, multiple segments of the common femoral artery at the level of injury were fixed in 10% Zinc Formalin, embedded in paraffin, sectioned at […] thickness, and subjected to Elastic-Van Gieson staining at a Columbia University Core Histology facility. In many cases, arteries underwent immunohistochemical staining for smooth muscle a-actin to highlight the media and neointima. Photomicrographs were captured on Adobe Photoshop 7.0 and transferred to Scion Image software for quantitative analysis. Specimens were analyzed by two independent operators blinded to the treatment groups. Microsoft Excel software was used to calculate the RNI values from I/M ratios in the absence and presence of pharmacological inhibitors, as detailed in the text.
Surgical Procedures: The mouse femoral artery wire injury model of was used with minor modifications (Roque M, et al., Arterioscler Thromb Vasc Biol, 2000, 20(2):335-42). Briefly, forty-two male mice were studied. Endoluminal injury to the common femoral artery was produced by either 3 passages of a 0.014″ diameter angioplasty guidewire (Guidant, Santa Clara, Calif.). […] While being viewed under a surgical microscope, a groin incision was made and the femoral artery was isolated and temporarily clamped distal to the inguinal ligament. An arteriotomy was performed and the guidewire was passed 3 times to the level of the aortic bifurcation. The artery was then ligated proximal to the arteriotomy. A sham protocol was carried out on the contralateral side where the arteries underwent dissection, temporary clamping, and ligature, without passage of the wire. The formation of the neointima was confirmed in this model as being comprised mainly of VSMCs through immunohistochemical staining of representative sections for α-smooth muscle actin via a commercial kit (Sigma).
For all treatment protocols, rapamycin was administered by intraperitoneal injection once per day, for 14 days, as a suspension in 0.2% sodium carboxymethyl cellulose and 0.25% polysorbate-80. […]

[3] = system: primary murine aortic vascular smooth muscle cells (VSMC); assay: VSMC proliferation assay (Coulter counter / MTS-based); assay type: cell-based, mouse
Method: The methods used in the above experiments were as follows: Cell Culture and VSMC Proliferation Assays. Primary VSMC were isolated from aortic explants of wildtype, ob/ob, or db/db mice in the method of Roque et al. 30. VSMC were routinely cultured in Dulbecco's Modified Eagle's Medium (DMEM) containing either 4500 or 1250 mg/L glucose supplemented with 20% FBS at 37° C. in a 5% CO2 incubator. […] Cells were plated at 200,000 cells/ well of a 6 well dish and subsequently serum starved for 72 hr in DMEM media supplemented with 0.1 % FBS. Leptin dissolved in PBS was added directly to serum-free media at concentrations of 1, 10, or 100 ng/ml with […] LY294002 or U0126, and cells were grown for another 72 hr before harvesting. VSMC proliferation was measured by counting samples using a Coulter counter or using the Cell Titre 96 Aqueous One Solution Cell Proliferation Assay kit (Promega). Cell viability was assessed by Trypan Blue staining.
Proliferation of VSMCs: VSMC proliferation was measured by counting triplicate samples using a Coulter counter or using the CellTitier 96 Aqueous One Solution Cell Proliferation Assay (Promega, Madison, Wis.) kit per manufacturer's instructions. Cell viability was assessed via staining with Trypan Blue.
Murine VSMCs (2×10^4 cells/well) were incubated in a 6-well tissue culture plate for 72 hours in DMEM containing 0.1% FBS with or without insulin (10 or 100 nmol/L) and with 0, 1, 10, or 100 nmol/L rapamycin. Triplicate samples were counted using a Coulter counter and were normalized as percentage of the control group. Cell viability was checked via Trypan blue staining.
Murine VSMCs, seeded 2×10^4 cells/well in a 6-well plate, were starved for 72 hrs in DMEM with 0.1% FBS. Rapamycin, leptin, or insulin in different concentrations indicated in the figure were incubated with VSMCs in DMEM with 0.1% of FBS for 72 hrs. Triplicate samples were counted via a Coulter counter. Cell viability was checked via Trypan blue staining. […] In panel C, VSMCs were exposed to U0126, a specific MEK1/2 inhibitor, or LY294002, a specific PI3K inhibitor.
Primary VSMC were isolated from aortic explants of WT, ob/ob, or db/db mice (46). VSMC proliferation was determined using the Cell Titre Aqueous One Solution Proliferation Assay (Promega, Madison, Wis.). Migration to PDGF-BB was assessed in a modified Boyden chamber assay (47).

[4] = system: wire-injured femoral artery of hyperglycemic (STZ) mice; assay: Femoral artery wire injury in streptozotocin-induced hyperglycemic mice; assay type: in vivo, mouse
Method: For the studies carried out in hyperglycemic mice, animals received an intraperitoneal injection of 60 mg/kg/d for 5 days of streptozotocin (STZ) in 0.05 mol/L citrate buffer. Surgery was performed 3 days following the final injection. Blood glucose levels were measured prior to injury (representing baseline levels), at time of injury, at euthanasia, and as needed during insulin administration with the OneTouch SureStep® Blood glucose monitoring system (Lifescan, Inc., Milipitas, Calif.). Only animals with blood glucose concentrations >300 mg/dL were included in this study.
Insulin (12-26 U/kg) was administered via an intraperitoneal route twice per day, for 14 days, according to blood glucose measurements.
Morphometry: Mice were euthanized via CO2 asphyxiation and were perfused with 10% Zinc Formalin through the left ventricle at physiological pressure (100 mm Hg). Tissues were excised and fixed overnight in 10% Zinc Formalin, embedded in paraffin, and sectioned at 5 μm thickness. Multiple level sections were cut at 100 pm intervals. For morphometry, tissues were stained with elastic van Gieson stain. Using computer aided morphometry (Scion Image), luminal, medial, intimal, and vessel area, and the lengths of the internal and external elastic laminae were measured as previously described (Roque M, et al., Arterioscler Thromb Vasc Biol, 2000, 20(2):335-42) in a blinded manner. […]

[5] = wire injury + leptin 0.4 mg/kg, SRL 1 mg/kg/d i.p. 14 days
[6] = wire injury + leptin 0.4 mg/kg, SRL 4 mg/kg/d i.p. 14 days
[7] = wire injury + leptin 0.4 mg/kg, SRL 9 mg/kg/d i.p. 14 days
[8] = wire injury, SRL 1 mg/kg/d i.p. 14 days, no leptin
[9] = wire injury, SRL 4 mg/kg/d i.p. 14 days, no leptin
[10] = wire injury, SRL 9 mg/kg/d i.p. 14 days, no leptin

Compound: CO[C@H]1C[C@@H]2CC[C@@H](C)[C@@](O)(O2)C(=O)C(=O)N2CCCC[C@H]2C(=O)O[C@H]([C@H](C)C[C@@H]2CC[C@@H](O)[C@H](OC)C2)CC(=O)[C@H](C)/C=C(\C)[C@@H](O)[C@@H](OC)C(=O)[C@H](C)C[C@H](C)/C=C/C=C/C=C/1C [sirolimus, rapamycin]
- inhibition of leptin-stimulated phosphorylation of ERK1/2 ([1]; Example 2, rapamycin, leptin 100 ng/ml): did not inhibit
- inhibition of leptin-stimulated phosphorylation of Akt (Akt phosphorylation): did not inhibit
- decrease of neointimal formation compared to vehicle ([2]; sirolimus 1 mg/kg/d): ~2 fold
- relative neointimal inhibition (RNI) ([2]; sirolimus 1 mg/kg/d, in the presence of leptin 0.4 mg/kg): 0.35
- relative neointimal inhibition (RNI) ([2]; sirolimus 1 mg/kg/d, without leptin, RNI 1 = total inhibition): 0.51
- decrease of neointimal formation compared to vehicle ([2]; sirolimus 4 mg/kg/d): ~5 fold
- relative neointimal inhibition (RNI) ([2]; sirolimus 4 mg/kg/d, in the presence of leptin 0.4 mg/kg): 0.67
- relative neointimal inhibition (RNI) ([2]; sirolimus 4 mg/kg/d, without leptin): 0.81
- decrease of neointimal formation compared to vehicle ([2]; sirolimus 9 mg/kg/d): ~5 fold and ~6 fold
- relative neointimal inhibition (RNI) ([2]; sirolimus 9 mg/kg/d, in the presence of leptin 0.4 mg/kg): 0.97
- relative neointimal inhibition (RNI) ([2]; sirolimus 9 mg/kg/d, without leptin): 0.85
- I/M (intima:media ratio) [2, 5]: 1.269 ± 0.254
- Intima [2, 5]: 0.024 ± 0.005
- Lumen [2, 5]: 0.010 ± 0.002
- Media [2, 5]: 0.019 ± 0.001
- TVA (total vessel area) [2, 5]: 0.056 ± 0.007
- I/M (intima:media ratio) [2, 6]: 0.654 ± 0.172
- Intima [2, 6]: 0.009 ± 0.001
- Lumen [2, 6]: 0.012 ± 0.004
- Media [2, 6]: 0.015 ± 0.002
- TVA (total vessel area) [2, 6]: 0.035 ± 0.006
- I/M (intima:media ratio) [2, 7]: 0.061 ± 0.015
- Intima [2, 7]: 0.001 ± 0.000
- Lumen [2, 7]: 0.014 ± 0.002
- Media [2, 7]: 0.017 ± 0.003
- TVA (total vessel area) [2, 7]: 0.031 ± 0.004
- I/M (intima:media ratio) [2, 8]: 0.334 ± 0.043
- Intima [2, 8]: 0.005 ± 0.001
- Lumen [2, 8]: 0.012 ± .003
- Media [2, 8]: 0.014 ± 0.001
- TVA (total vessel area) [2, 8]: 0.029 ± 0.003
- I/M (intima:media ratio) [2, 9]: 0.121 ± 0.027
- Intima [2, 9]: 0.001 ± 0.000
- Lumen [2, 9]: 0.012 ± 0.005
- Media [2, 9]: 0.015 ± 0.003
- TVA (total vessel area) [2, 9]: 0.028 ± 0.006
- I/M (intima:media ratio) [2, 10]: 0.094 ± 0.037
- Intima [2, 10]: 0.001 ± 0.000
- Lumen [2, 10]: 0.015 ± 0.002
- Media [2, 10]: 0.015 ± 0.002
- TVA (total vessel area) [2, 10]: 0.030 ± 0.004

Compound: N#CC(=C(/N)Sc1ccccc1N)/C(C#N)=C(\N)Sc1ccccc1N [U0126]
- VSMC proliferation induced by leptin and insulin [3]: weak inhibition; also recorded: not inhibited
- effect on leptin-induced VSMC proliferation [3]: did not significantly alter
- effect on leptin-induced proliferation of murine VSMC [3]: did not significantly alter
- leptin-stimulated phosphorylation of MAPK ([1]; Example 1, data not shown): prevented
- leptin-stimulated phosphorylation of MAPK ([1]; Example 5, U0126 10 μM): prevented

Compound: Insulin: insulin purchased from Calbiochem
- VSMC proliferation ([3]; insulin 10 or 100 nmol/L, 72 hours): induced a dose dependent increase in cell proliferation
- blood glucose levels ([4]; STZ mice, insulin 12-26 U/kg twice per day): reduce blood glucose levels to normal levels
- intima:media ratio ([4]; STZ+INS, insulin 12-26 U/kg i.p. twice per day 14 days, p<0.01): significant increase
